# Data reported in patent US20060258644A1, “Pyrrolobenzodiazepines and heteroaryl, aryl and cycloalkylamino ketone derivatives as follicle stimulating hormone receptor (FSH-R) antagonists” (Wyeth, priority 2005, published 2006).
# Experiments:
# human FSH receptor = target: T1, human FSH receptor (Homo sapiens, UniProt P23945); assay: FSH receptor-dependent CRE-luciferase reporter gene assay (CHO FSH-R 6CRE-Luc cells); type: cell-based; settings: dose-response in presence of EC50 of purified human FSH; read-out: CRE IC50
# T1 construct: host or cells: CHO-K1 (CHO FSH-R 6CRE-Luc, 1D7 cells)
# T1 sequence (P23945 18-695): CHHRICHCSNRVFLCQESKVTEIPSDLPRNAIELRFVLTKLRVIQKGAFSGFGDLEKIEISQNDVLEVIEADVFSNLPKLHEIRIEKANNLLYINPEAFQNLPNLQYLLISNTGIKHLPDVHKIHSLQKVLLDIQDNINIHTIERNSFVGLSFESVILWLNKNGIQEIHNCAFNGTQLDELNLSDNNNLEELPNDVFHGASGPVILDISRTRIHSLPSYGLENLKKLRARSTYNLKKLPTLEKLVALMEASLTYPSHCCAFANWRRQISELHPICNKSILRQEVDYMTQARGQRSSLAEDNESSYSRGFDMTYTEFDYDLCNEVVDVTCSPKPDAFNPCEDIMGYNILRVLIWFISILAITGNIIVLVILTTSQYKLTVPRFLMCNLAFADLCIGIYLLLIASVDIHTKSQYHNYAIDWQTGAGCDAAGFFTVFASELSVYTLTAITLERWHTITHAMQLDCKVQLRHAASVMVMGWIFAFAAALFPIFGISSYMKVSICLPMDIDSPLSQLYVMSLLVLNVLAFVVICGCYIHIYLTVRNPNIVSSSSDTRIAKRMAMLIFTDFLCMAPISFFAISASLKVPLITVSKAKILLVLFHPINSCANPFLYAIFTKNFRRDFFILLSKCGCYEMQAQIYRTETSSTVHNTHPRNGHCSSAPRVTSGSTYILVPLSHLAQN
# Source text: Follicle-Stimulating Hormone Receptor-Dependent CRE-Luciferase Reporter Gene Assay for the Identification of Follicle-Stimulating Hormone (FSH) Antagonists
# This procedure was used to identify and determine the relative potencies of human FSH receptor antagonists using a Chinese hamster ovarian cell line that stably produces the human FSH receptor and a luciferase reporter gene regulated by cAMP response elements.
# The compounds were subsequently diluted in DMSO to working dilutions of 1 and 20 or 30 mM for 2-dose testing format and 1 μM-10 mM for dose-response format. The DMSO dilutions were diluted 500-fold in sterile growth medium [D-MEM/F-12 (GIBCO/BRL; Grand Island N.Y.) containing 15 mM HEPES, 2 mM 1-glutamine, pyridoxine hydrochloride, phenol red and 5% FetalClone II (HyClone Laboratories, Inc; Logan, Utah), 0.2% DMSO, 100 units penicillin G/ml, and 100 μg streptomycin sulfate/ml (GIBCO/BRL)]. The concentration of the vehicle in each of the compound dilutions was the same. • Positive Controls: Purified human FSH (>98%) was purchased from Cortex Biochem, Inc. (San Leandro, Calif.) and WAY-162002 (an FSH-R thiazolidinone antagonist) was obtained from the Wyeth Research compound repository. Preparation of Cells
# The CHO FSH-R 6CRE-Luc cells (1D7 cells) were obtained from Affymax (Palo Alto, Calif.). These Chinese hamster ovary cells (CHO—K1) were genetically engineered to stably express the recombinant human FSH receptor gene and a luciferase reporter gene under the regulation of 6 copies of a cAMP response element. The cells were plated one day prior to treatment into 96-well white opaque plates at a density of 50,000 cells/100 μl/well in growth medium. On the day of treatment, the growth medium was removed from the wells by aspiration and 50 μl of fresh growth medium was added to each well. The cells were incubated at 37° C. in a humidified incubator with 5% CO2/95% air.
# The treated cells were incubated for 4 hours at 37° C. in a humidified incubator with 5% CO2/95% air. At the end of-the incubation period, luciferase activity was measured by chemiluminescence using a commercially available kit (LucScreen, Tropix, Inc., Bedford, Mass.) according to the manufacturer's specifications, except that Buffer 1 and Buffer 2 were mixed together in equal proportion prior to the addition of 100 μl of the combined reagents to each well. Chemiluminescence was detected using a luminometer (EG & G Berthold Microlumat LB 96 P, Wallac, Gaithersburg, Md.) with chemiluminescence measured for 1 sec/well. Background luminescence was measured for each well prior to the addition of the LucScreen reagent.
# In the 96-well 2-dose format, each compound was tested in duplicate at each dose. […] One plate was used to test a maximum of 22 compounds.
# The EC50 of purified human FSH alone was tested in triplicate with each test compound. The doses chosen to test each compound were extrapolated from the initial 2-dose screening process. Along with the test compounds, purified human FSH was also tested in a dose response (0.03, 0.1, 0.3, 1, 3, 10, and 30 ng/ml) for a positive control and quality control. One plate was used for 3 test compounds and the FSH positive control.
# Luciferase activity is expressed as relative light units/sec/well. Luciferase activity in antagonist was compared to the appropriate negative and positive controls. For 2-dose testing, results are reported as luciferase activity and are expressed as % inhibition of the response obtained from the EC50 of FSH. For dose-response testing, results are reported as IC50 values. Data were analyzed statistically by one-way analysis of variance with appropriate weighting and transformation and relevant paired test as determined by Biometrics (Wyeth Research, Princeton, N.J.). IC50 values were calculated using the Stat/Excel program developed by Biometrics with appropriate weighting and transformation.
# hFSH-R = target: T2, hFSH-R (Homo sapiens, UniProt P23945); assay: cAMP accumulation bio-assay in CHO-3D2 cells (hFSH-R), RIA; type: cell-based
# T2 construct: expressed in transfected cells; host or cells: CHO-3D2 cells
# T2 sequence (P23945 18-695): T1 sequence (P23945 18-695)
# Procedure: The compounds were subsequently diluted in sterile assay medium consisting of Opti-MEM® I (Life Technologies) with 0.1% (w/v) BSA (Sigma), prior to use in the bio-assay. The final concentration of DMSO in the assay is 0.1%.
# Plated cells are then incubated at 37° C. in a humidified 5% CO2/95% air, atmosphere.
# On the day of the assay, cells were washed three times with 100 μl/well of assay medium consisting of Opti-MEM® I (Life Technologies) with 0.1% (w/v) BSA (Sigma). Medium was removed and 100 μl of assay medium was added to each well. Plates were incubated for an additional 30 minutes at 37° C. […] Reactions were terminated by the addition of 50 μl of 0.2N hydrochloric acid to each well and cAMP-accumulation was measured by radioimmunoassay (RIA) using a commercially available kit (Amersham).
# All test compounds were evaluated in a dose-response paradigm ranging from 0.01 to 30 μM. Controls and test compounds were evaluated in quadruplicate in a 96-well format.
# Data were analyzed by one-way analysis of variance and significant differences between treatments and control determined by Least Significant Difference test.
# Test compounds were compared to the effect of purified human FSH.
smiles,measurement,setting,value
"COc1ccccc1-c1ccc(C(=O)N2Cc3ccc(C(=O)CCc4cccnc4)n3Cc3ccccc32)cc1 [Example 3, 1-{10-[(2′-Methoxy-1,1′-biphenyl-4-yl)carbonyl]-10,11-dihydro-5H-pyrrolo[2,1-c][1,4]benzodiazepin-3-yl}-3-pyridin-3-ylpropan-1-one]",IC50,human FSH receptor,6.82 µM
same,IC50,hFSH-R,2 µM
same,Emax,hFSH-R; read-out: cAMP % efficacy,78%
